Blank lines part the entries; values can stand above or below the substance they belong to. Ends that are not written are not given here.
Experiments:
cdk2 = biological target: T1, cdk2 (Homo sapiens, UniProt P24941); assay: GST pull-down assay with GST-cdk2; type: binding; conditions: 35S-labeled in vitro translates
T1 construct: made in house
Protocol: (§1) FIG. 11 illustrates that cyclin box is required for transcriptional repression by DNA bound cyclin A. (A) U2OS cells were cotransfected with plasmids encoding the indicated TETr-cyclin A variants along with the pUHC 13-3 reporter plasmid and a plasmid encoding β-galactosidase. Cell extracts were prepared and luciferase activity, corrected for β-galactosidase activity, was expressed as fold repression relative to cells producing TETr alone. (B) The indicated TETr-cyclin A variants were translated in vitro in the presence of ^35S-methionine and incubated with GST-cdk2 and glutathione Sepharose. […] In parallel, 20% of the input proteins were resolved by SDS-polyacrylamide gel electrophoresis and detected by autoradiography. (c) pRB defective SAOS-2 cells transfected so as to produce HA-tagged pRB along with the indicated TETr-cyclin A variants were lysed and immunoblotted with anti-HA antibody.
Glutathione S-transferase pull-down assays were performed basically as described previously (Kaelin et al., 1991). Binding reactions contained 10 μl of ^35S-radiolabelled in vitro translates made with a TNT kit (Promega) and approximately 1 μg of the indicated GST fusion protein in 1 ml of NETN (20 mM Tris [pH 8], 100 mM NaCl, 1 mM EDTA, 0.5% Nonidet P-40). Following 1 hour incubation at 4° C. with rocking, the Sepharose was washed 5 times with NETN. […]

pRB = pRB phosphorylation in pRB-defective SAOS-2 cells; type: cell-based, human; conditions: cointroduced with HA-tagged pRB into SAOS-2 cells
Protocol: FIG. 8 illustrates the production of TETr-cyclins A and E. (A) is a schematic of TETr-cyclin fusion protein. […] The % of transfected cells in G1 and S phase was determined by fluororescence activated cell sorting (FACS).
as §1

[1] = system: TETo-driven luciferase reporter plasmid (pUHC13-3); assay: TETr-fusion transcriptional luciferase reporter gene assay in U2OS cells; type: cell-based, human; conditions: pUHC13-3 reporter
Protocol: (A) is a schematic of reporter plasmid (pUHC 13-3) that contains seven TETracycline operator sequences (TETo) upstream of a minimal CMV promoter that includes a TATA box. (B, C) show U2OS cells were cotransfected with plasmids encoding the indicated TETr fusion proteins along with the pUHC 13-3 reporter plasmid and a plasmid encoding β-galactosidase. Numbers shown at the bottom of the graph indicate the amount of TETr plasmid (in μg). 48 hours later luciferase activity, normalized for β-galactosidase, was determined. Fold repression is the corrected luciferase value for TETr alone divided by the corrected luciferase values for the indicated TETr fusion proteins. Fold activation represents the corrected luciferase values for the indicated TETr fusion proteins divided by the corrected luciferase value for TETr alone. […]
For TETr-fusion transcriptional assay, subconfluent U2OS cells were transiently transfected in 6-well plates in duplicate with 1 μg of […], 1 μg of pUHC13-3 reporter plasmid, and 3 μg of the indicated plasmids encoding TETr-fusion proteins. […] 48 hours after transfection luciferase activity and β-galactosidase activity was determined as described previously (Qin, 1995).

[2] = In vitro degradation assay with xenopus egg extracts; type: biochemical; conditions: room temperature
Protocol: Xenopus egg extracts were made as is well known in the art and stored frozen until use. Degradation reactions contained 8 μl of egg extract, 0.1 μl of 100 mg/ml cyclohexamide, 0.25 μl of energy regeneration mix, 0.25 μl of bovine ubiquitin, and 0.4 μl of ^35S-radiolabeled HIF and were carried out at room temperature. At the indicated timepoints 1 μl aliquots were removed and placed in sample buffer. Samples were resolved on 5-15% gradient gels and analyzed by autoradiography. Biotinylated HIF (556-575) peptides were incubated with rabbit reticulocyte lysate, washed, eluted with free biotin, and analyzed by mass spectrometry. 1 μg of HPLC-purified peptide was bound to 30 μl monomeric avidin Sepharose and incubated with 100 μl of rabbit reticulocyte lysate at room temperature for 1 hour with tumbling. Following brief centrifugation the reticulocyte lysate was removed, fresh reticulocyte lysate was added, and the cycle was repeated 6 times. The Sepharose was then washed 4 times with NETN and once with PBS. The modified peptide was eluted in 50 μl of 20 mM ammonium acetate [pH 7.0], 2 mM biotin. […] This peak was not detectable prior to incubation with reticulocyte lysate and was not detected in the corresponding reticulocyte-treated Leu562Ala and Pro564Ala peptides (FIG. 6A). […] Following visualization of standards with ninhydrin radiolabeled proline was detected by autoradiography. […]

COS7 cells = assay: Anti-HA immunoblot of transiently transfected COS7 cells; type: cell-based
Protocol: (A) depicts in vitro ubiquitination of ^35S-labeled wild-type, Leu562A, and Pro564A Gal4-HA-HIF1α (530-652) in the presence of S100 extracts prepared from pVHL-defective renal carcinoma cells stably transfected to produce wild-type pVHL or with empty vector. […] (C) is an anti-HA immunoblot analysis of COS7 cells transiently transfected with 1.5 or 3.5 μg of plasmids encoding wild-type or P564A HA-HIF1α in the absence or presence of desferoxamine.

HA-pVHL bound HIF = biological target: T2, HA-pVHL bound HIF (Homo sapiens, UniProt P40337); assay: Peptide elution of HIF coimmunoprecipitated with HA-pVHL from ts20 cells; type: binding; conditions: 7 μg peptide in 65 μl PBS
T2 construct: expressed in transfected cells; host or cells: ts20 cells stably transfected with pIRES-HA-VHL, G418-selected
Protocol: Individual G418-resistant colonies were isolated using cloning cylinders and expanded. Cells producing HA-VHL or HA-VHL (Y98H) were identified by anti-HA immunoblot analysis. […] For the tests shown in FIG. 5C, ts20 cells were grown at the restrictive or permissive temperature for 14 hours, methionine-starved for 90 min, and then grown in the methionine-free media supplemented with ^35S-met ([…]) for 90 min.

[3] = Luciferase activity of in vitro translate; type: biochemical; conditions: versus wild-type luciferase
HeLa cells = assay: Luciferase activity in transiently transfected HeLa cells; type: cell-based
Protocol: To begin to ask whether the ODD-Luc was oxygen sensitive in cells, transient transfection assays were performed. In the first set of experiments, 100 mm tissue culture plates were seeded with 8×10^5 HeLa cells per plate. Eighteen hours later the cells were transiently transfected, using lipofectamine (Gibco), with the pcDNA3 plasmids encoding ODD-Luc or wild-type Luc along with an internal control plasmid encoding Renilla luciferase. Twenty-four hours after transfection the cells were split into 6 well plates and allowed to adhere and grow for 8-12 hours. At this point the hypoxia mimetics desferrioxamine (DFO) or cobalt chloride (CoCl2) were added directly to the media at final concentrations of 500 μM and 200 μM respectively, in duplicate wells. In addition, some wells were not treated so as to serve as controls. 12 hours after treatment with DFO and CoCl2 the cells were lysed with Passive Lysis Buffer (Promega), rocked at room temperature for 20 minutes, and assayed for Firefly and Renilla Luciferase according to the manufacturers instructions. Results were obtained in duplicate and averaged. (FIG. 17). Luciferase activity in HeLa cells containing pcDNA3 plasmids encoding wild-type Luc are presented in the first three bars from the left; while luciferase activity in HeLa cells containing pcDNA3 plasmids encoding ODD-Luc are presented in the fourth through sixth bars from the left.

[4] = biological target: T3, pVHL (GST-VHL, elongin B, elongin C complex) (Homo sapiens, UniProt P40337); assay: VBC-GST pulldown of 35S-labeled in vitro translated proteins; type: binding
T3 construct: made in house; host or cells: E. coli

[5] = system: Hela cells xenograft tumors; assay: Imaging of ODD-Luc in xenograft tumors in nude mice; type: in vivo; conditions: subcutaneous Hela tumors, versus Luc sites
Protocol: Polyclonal Hela cells stably transfected with ODD-Luc and Luc were generated. The clones were suspended in PBS and counted. 10^6 cells per injection site were administered subcutaneously in duplicate into the flanks of nude mice (FIG. 18). Upon growth of palpable tumors (approximately 3-4 days) the mice were given intraperitoneal injections of phenobarbital for anesthesia, injected with a weight-adjusted dose of luciferin, and whole body imaged with a Xenogen Camera. To ensure that the difference in luciferase activity was not simply a function of tumor size alone, bidimensional tumor measurements were taken and were approximately equal.

T3 sequence (P40337 whole entry): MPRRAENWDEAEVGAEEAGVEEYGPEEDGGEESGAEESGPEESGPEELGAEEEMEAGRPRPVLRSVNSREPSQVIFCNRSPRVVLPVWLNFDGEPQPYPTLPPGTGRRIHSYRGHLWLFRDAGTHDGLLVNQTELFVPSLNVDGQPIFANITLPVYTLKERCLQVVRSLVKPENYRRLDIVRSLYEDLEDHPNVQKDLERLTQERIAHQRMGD
T3 sequence (Q15370 whole entry partner): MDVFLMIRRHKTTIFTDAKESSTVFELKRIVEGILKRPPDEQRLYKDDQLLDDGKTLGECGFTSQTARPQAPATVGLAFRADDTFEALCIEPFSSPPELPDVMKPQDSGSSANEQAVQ
T3 sequence (Q15369 whole entry partner): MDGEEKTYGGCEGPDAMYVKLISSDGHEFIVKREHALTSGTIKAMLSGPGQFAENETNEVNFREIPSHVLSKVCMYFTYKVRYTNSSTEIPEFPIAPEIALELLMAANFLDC
T2 sequence (P40337 whole entry): as the sequence (P40337 whole entry) above
T2 sequence (P62869 whole entry partner): as the sequence (Q15370 whole entry partner) above, with D40E, C89R, S110G counted along it
T2 sequence (P83940 whole entry partner): as the sequence (Q15369 whole entry partner) above

Substance: Cyclin A (1-310): cyclin A fragment 1-310 fused to TETr
binding to cdk2 (cdk2): does not bind to cdk2
pRB phosphorylation (pRB): cannot direct the phosphorylation of pRB
transcriptional effect on TETo-driven luciferase reporter [1]: repressed transcription

Substance: HIF1α Leu562Ala: HIF1α with Leu562Ala mutation
stability relative to wild-type HIF1α [2]: far more stable

Substance: HIF1α Pro564Ala: HIF1α with Proline 564 converted to alanine
sensitivity to the hypoxia-mimetic desferoxamine (COS7 cells): insensitive
stability relative to wild-type HIF1α [2]: far more stable

elution of HIF bound to HA-pVHL (HA-pVHL bound HIF): not eluted
Substance: HIF (556-575) Pro564Ala peptide: HIF (556-575) peptide with Pro564Ala substitution (DLDLEMLAAYIPMDDDFQLR)

luciferase activity in vitro [3]: comparable to wild-type luciferase
binding of pVHL (GST-VBC pulldown) ([4]; translated in vitro in rabbit reticulocyte lysate): bound
binding of pVHL (GST-VBC pulldown) ([4]; wheat germ produced): did not bind
Substance: ODD-Luc: Firefly luciferase fused in-frame to HIF1α amino acids 555-575 (ODD) (TDLDLEMLAPYIPMDDDFQLR; also: fused to firefly luciferase (not shown))
induced luciferase levels versus wild-type luciferase (HeLa cells; after addition of hypoxia-mimetics): comparable
luciferase values relative to wild-type Luc (HeLa cells; untreated HeLa cells grown in the presence of oxygen): approximately 30%
luciferase signal at injection sites (whole body imaging) [5]: attenuated luciferase signal

From US7919274B2, “Light-emitting fusion proteins and diagnostic and therapeutic methods therefor” (Dana-Farber Cancer Institute, Inc., priority 2001, dated 2011)
